Experimental data reported in US9707281B2, “Pharmaceutical compositions and methods for digesting atherosclerotic plaques” (Northwestern University, priority 2010, dated 2017).

System: Human arterial plaque samples
Test: in vitro dissolution and digestion of atherosclerotic plaque specimens (percent reduction of plaque weight)
Conditions: EDTA 0.5-2 mg/ml, β-cyclodextrin 1-100 mMol, tPA 0.5-2 mg/ml, p<0.05
Procedure: Atherosclerotic plaques from surgical endarterectomies were obtained from various anatomic sites. All experiments were performed by cutting a given plaque into equal parts by weight then exposing them to various agents alone and in combination to determine the most optimal digestion solution. The optimal concentration and conditions for plaque dissolution and digestion were determined for ethylenediaminetetraacetic acid (EDTA), β-cyclodextrin, tPA, collagenase type I, III, IV, and V. Weights of each specimen were obtained prior to exposure of each solution and at different time points to determine percent of digested versus undigested plaque. Additional variables that were assessed and optimized include: 1) different combinations of EDTA, β-cyclodextrin, and the collagenases, 2) temperature, 3) pH, and 4) agitation.
Atherosclerotic plaques were obtained from patients undergoing endarterectomies. The optimal concentration and conditions for plaque dissolution and digestion were determined for ethylenediaminetetraacetic acid (EDTA), β-cyclodextrin, and collagenase type I, III, IV, and V. Variables that were assessed included: 1) combination of different agents, 2) time, 3) temperature, 4) pH, and 5) agitation. Weight of each specimen was measured at different time points to determine percent of undigested plaque. […]

O=C(O)CN(CCN(CC(=O)O)CC(=O)O)CC(=O)O [EDTA, ethylenediaminetetraacetic acid]
reduction in plaque weight, agent alone: 15%

OC[C@H]1O[C@@H]2O[C@H]3[C@H](O)[C@@H](O)[C@@H](O[C@H]4[C@H](O)[C@@H](O)[C@@H](O[C@H]5[C@H](O)[C@@H](O)[C@@H](O[C@H]6[C@H](O)[C@@H](O)[C@@H](O[C@H]7[C@H](O)[C@@H](O)[C@@H](O[C@H]8[C@H](O)[C@@H](O)[C@@H](O[C@H]1[C@H](O)[C@H]2O)O[C@@H]8CO)O[C@@H]7CO)O[C@@H]6CO)O[C@@H]5CO)O[C@@H]4CO)O[C@@H]3CO [β-cyclodextrin]
reduction in plaque weight, agent alone: 2%
